Measurements from ChEMBL document CHEMBL3399963, “Design, synthesis and preliminary biological evaluation of C-8 substituted guanine derivatives as small molecular inhibitors of FGFRs” (Bioorg Med Chem Lett, 2015).
pIC50: −log10 of the molar value.

Assays:
[1] = biological target: T1, Fibroblast growth factor receptor 4 (Homo sapiens, UniProt P22455); test: Inhibition of FGFR4 (unknown origin) after 90 mins by TR-FRET assay
A549 = test: Cytotoxicity against human A549 cells after 72 hrs by MTT assay; settings: A549, 72 h
[2] = Cytotoxicity against human HeLa 229 cells after 72 hrs by MTT assay; settings: HeLa 229, 72 h
[3] = Cytotoxicity against mouse B16F10 cells after 72 hrs by MTT assay; settings: B16-F10, 72 h
[4] = Cytotoxicity against human HL7702 cells after 72 hrs by MTT assay; settings: L02, 72 h
[5] = Cytotoxicity against human HL7702 cells assessed as cell survival at 2 to 10 uM after 72 hrs by MTT assay; type: cell-based; settings: l02, 72 h
[6] = biological target: T1, Fibroblast growth factor receptor 4; test: Inhibition of FGFR4 (unknown origin)
[7] = biological target: Fibroblast growth factor receptor 3 (Homo sapiens, UniProt P22607); test: Inhibition of FGFR3 (unknown origin) after 90 mins by TR-FRET assay
[8] = biological target: Fibroblast growth factor receptor 2 (Homo sapiens, UniProt P21802); test: Inhibition of FGFR2 (unknown origin) after 90 mins by TR-FRET assay
[9] = biological target: Fibroblast growth factor receptor 1 (Homo sapiens, UniProt P11362)
Sequence of Fibroblast growth factor receptor 1 (P11362 whole entry): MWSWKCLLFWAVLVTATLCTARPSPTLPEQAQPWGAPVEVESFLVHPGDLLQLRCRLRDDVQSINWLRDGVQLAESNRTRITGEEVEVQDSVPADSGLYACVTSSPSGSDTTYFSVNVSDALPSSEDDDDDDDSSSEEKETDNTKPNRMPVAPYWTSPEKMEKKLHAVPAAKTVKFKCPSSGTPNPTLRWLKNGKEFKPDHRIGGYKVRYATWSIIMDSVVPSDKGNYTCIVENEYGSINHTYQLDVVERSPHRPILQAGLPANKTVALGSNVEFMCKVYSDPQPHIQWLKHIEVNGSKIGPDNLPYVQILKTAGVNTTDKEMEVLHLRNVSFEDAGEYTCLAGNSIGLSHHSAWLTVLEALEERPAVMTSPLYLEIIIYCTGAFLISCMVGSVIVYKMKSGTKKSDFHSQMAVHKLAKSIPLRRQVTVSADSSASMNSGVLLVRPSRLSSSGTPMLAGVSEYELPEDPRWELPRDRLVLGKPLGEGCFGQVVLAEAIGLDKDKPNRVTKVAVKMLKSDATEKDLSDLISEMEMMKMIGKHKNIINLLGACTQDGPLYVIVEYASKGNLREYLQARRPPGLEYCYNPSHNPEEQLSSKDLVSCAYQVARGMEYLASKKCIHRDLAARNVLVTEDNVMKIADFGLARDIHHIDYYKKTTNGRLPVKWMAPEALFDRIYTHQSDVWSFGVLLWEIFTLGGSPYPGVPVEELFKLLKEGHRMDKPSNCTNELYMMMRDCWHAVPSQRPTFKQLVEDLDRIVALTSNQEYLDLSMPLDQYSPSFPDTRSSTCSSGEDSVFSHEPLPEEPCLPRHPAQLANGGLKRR
Description: Inhibition of FGFR1 (unknown origin) after 90 mins by TR-FRET assay

Sequence of Fibroblast growth factor receptor 3 (P22607 whole entry): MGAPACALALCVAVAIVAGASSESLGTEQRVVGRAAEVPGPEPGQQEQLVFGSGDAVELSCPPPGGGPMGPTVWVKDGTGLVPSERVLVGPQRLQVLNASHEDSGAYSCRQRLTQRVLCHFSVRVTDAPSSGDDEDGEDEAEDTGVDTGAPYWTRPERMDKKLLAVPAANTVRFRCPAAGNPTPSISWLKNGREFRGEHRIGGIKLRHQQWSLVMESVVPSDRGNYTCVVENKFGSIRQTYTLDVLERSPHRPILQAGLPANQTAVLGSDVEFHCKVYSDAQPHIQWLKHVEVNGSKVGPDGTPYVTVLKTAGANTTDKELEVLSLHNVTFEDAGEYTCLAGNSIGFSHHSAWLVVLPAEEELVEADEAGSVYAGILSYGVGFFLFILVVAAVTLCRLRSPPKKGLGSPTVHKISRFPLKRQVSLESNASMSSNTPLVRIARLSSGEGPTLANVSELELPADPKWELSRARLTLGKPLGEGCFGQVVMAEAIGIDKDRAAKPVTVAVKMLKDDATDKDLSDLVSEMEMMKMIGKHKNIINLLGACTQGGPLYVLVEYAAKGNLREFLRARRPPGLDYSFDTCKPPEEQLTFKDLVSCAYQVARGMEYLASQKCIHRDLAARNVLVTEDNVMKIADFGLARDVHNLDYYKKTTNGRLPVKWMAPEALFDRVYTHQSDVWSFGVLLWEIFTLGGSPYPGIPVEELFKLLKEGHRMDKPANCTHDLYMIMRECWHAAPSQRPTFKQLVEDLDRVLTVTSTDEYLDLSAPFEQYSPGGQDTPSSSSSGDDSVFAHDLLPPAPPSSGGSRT
T1 sequence (P22455 whole entry): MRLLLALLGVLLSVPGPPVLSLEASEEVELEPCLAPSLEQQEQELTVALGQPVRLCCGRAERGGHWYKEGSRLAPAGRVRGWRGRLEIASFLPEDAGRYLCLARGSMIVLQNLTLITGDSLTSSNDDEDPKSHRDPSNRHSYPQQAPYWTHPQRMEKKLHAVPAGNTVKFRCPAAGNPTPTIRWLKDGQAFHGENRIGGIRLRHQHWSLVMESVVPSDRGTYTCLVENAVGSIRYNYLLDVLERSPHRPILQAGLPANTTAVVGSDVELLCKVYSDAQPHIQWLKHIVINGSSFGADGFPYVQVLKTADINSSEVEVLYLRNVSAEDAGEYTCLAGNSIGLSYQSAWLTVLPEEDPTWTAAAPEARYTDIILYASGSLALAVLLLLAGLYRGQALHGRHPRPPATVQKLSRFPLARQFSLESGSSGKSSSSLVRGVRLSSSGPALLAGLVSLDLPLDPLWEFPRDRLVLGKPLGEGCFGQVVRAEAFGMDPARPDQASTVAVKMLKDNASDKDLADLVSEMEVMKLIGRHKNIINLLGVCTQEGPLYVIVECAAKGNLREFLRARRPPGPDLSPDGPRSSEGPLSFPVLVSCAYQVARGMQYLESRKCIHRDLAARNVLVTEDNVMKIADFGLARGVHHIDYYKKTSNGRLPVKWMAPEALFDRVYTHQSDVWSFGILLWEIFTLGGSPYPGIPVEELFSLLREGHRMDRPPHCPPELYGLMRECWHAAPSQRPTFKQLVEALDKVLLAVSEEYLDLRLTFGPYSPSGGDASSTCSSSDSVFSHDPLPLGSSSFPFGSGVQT
Sequence of Fibroblast growth factor receptor 2 (P21802 whole entry): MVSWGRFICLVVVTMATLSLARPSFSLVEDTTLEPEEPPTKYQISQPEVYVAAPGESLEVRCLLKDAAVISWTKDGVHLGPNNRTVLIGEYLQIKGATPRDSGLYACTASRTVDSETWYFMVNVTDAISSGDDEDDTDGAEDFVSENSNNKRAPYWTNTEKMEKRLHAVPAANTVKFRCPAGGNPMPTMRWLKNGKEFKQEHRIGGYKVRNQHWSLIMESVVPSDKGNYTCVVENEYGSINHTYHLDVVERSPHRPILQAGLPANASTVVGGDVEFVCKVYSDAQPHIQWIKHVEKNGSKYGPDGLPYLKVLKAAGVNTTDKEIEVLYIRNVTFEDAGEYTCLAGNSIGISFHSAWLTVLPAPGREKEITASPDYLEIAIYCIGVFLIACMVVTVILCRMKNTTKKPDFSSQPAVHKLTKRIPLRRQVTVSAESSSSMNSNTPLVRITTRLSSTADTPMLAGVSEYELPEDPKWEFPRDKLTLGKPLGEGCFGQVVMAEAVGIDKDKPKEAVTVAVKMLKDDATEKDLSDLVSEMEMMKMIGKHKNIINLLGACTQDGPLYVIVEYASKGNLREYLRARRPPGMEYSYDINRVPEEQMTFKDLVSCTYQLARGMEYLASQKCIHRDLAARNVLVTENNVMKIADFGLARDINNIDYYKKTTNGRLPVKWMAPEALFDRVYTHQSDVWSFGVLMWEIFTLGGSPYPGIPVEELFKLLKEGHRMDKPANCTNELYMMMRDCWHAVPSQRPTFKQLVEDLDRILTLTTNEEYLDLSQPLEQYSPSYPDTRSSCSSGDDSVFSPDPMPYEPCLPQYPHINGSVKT

SMILES | pIC50 [1] | pIC50 [6] | pIC50 [7] | pIC50 [8] | pIC50 [9] | pIC50 (A549) | pIC50 [2] | pIC50 [3] | pIC50 [4] | Activity [5]
COc1cc(CCc2cc(NC(=O)c3ccc(N4C[C@@H](C)N[C@@H](C)C4)cc3)n[nH]2)cc(OC)c1 [FEXAGRATINIB] | – | – | – | – | – | 7.21 | 6.85 | 7.29 | 4.74 | Non-toxic
COc1ccccc1-c1nc2c(O)nc(N)nc2[nH]1 | < 4.70 | – | < 4.70 | – | – | – | – | – | – | –
CC(=O)Nc1nc(O)c2nc(-c3ccccc3)[nH]c2n1 | < 4.70 | – | < 4.70 | – | – | – | – | – | – | –
COc1cccc(-c2nc3c(O)nc(NC(C)=O)nc3[nH]2)c1OC | < 4.70 | – | < 4.70 | – | – | 4.92 | 4.98 | 4.97 | 4.30 | –
Cc1ccc(-c2nc3c(O)nc(N)nc3[nH]2)c(C)c1 | < 4.70 | – | < 4.70 | – | – | – | – | – | – | –
Nc1nc(O)c2nc(-c3c[nH]c4ccccc34)[nH]c2n1 | < 4.70 | – | < 4.70 | – | – | 4.98 | 4.81 | 4.99 | 4.33 | –
Nc1nc(O)c2nc(-c3ccccc3)[nH]c2n1 | < 4.70 | – | < 4.70 | – | – | – | – | – | – | –

The next lines start with results.

pIC50 [1] | pIC50 [6] | pIC50 [7] | pIC50 [8] | pIC50 [9] | SMILES | pIC50 (A549) | pIC50 [2] | pIC50 [3] | pIC50 [4] | Activity [5]
< 4.70 | – | – | – | – | CC(=O)Nc1nc(O)c2nc(-c3c[nH]c4ccccc34)[nH]c2n1 | 5.03 | 4.97 | 5.05 | 4.32 | –
< 4.70 | – | – | – | – | CC(=O)Nc1nc(O)c2nc(-c3c[nH]c4cccc(Br)c34)[nH]c2n1 | 5.08 | 5.01 | 5.18 | 4.33 | Non-toxic
6.89 | 7.70 | – | – | – | CN1CCN(c2ccc(-c3nc4c(N5CCN(CC(=O)Nc6nccs6)CC5)c(Cl)cnc4[nH]3)cc2)CC1 | 5.59 | 5.36 | 5.79 | 4.56 | –
< 4.70 | – | < 4.70 | – | – | COc1ccccc1-c1nc2c(O)nc(NC(C)=O)nc2[nH]1 | – | – | – | – | –
< 4.70 | – | – | – | – | CC(=O)Nc1nc(O)c2nc(-c3ccc(C)cc3C)[nH]c2n1 | – | – | – | – | –
6.25 | – | 6.54 | 6.89 | 6.96 | CC(C)(C)NC(=O)Nc1nc2nc(N)ncc2cc1-c1c(Cl)cccc1Cl | 5.36 | 5.41 | 5.58 | 4.55 | –
